# Laboratory results: patent US9073961B2, “Substitution derivatives of N6 -benzyladenosine-5′-monophosphate, methods of preparation thereof, use thereof as medicaments, and therapeutic preparations containing these compounds” (UNIVERZITA PALACKEHO V OLOMOUCI, priority 2010, dated 2015)
# Assays:
# Assay type in all cases: cell-based
# [1] = tested on: Normal human fibroblasts BJ; assay: Calcein AM cytotoxicity assay, BJ; settings: 72 hours incubation
# How it was run: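 Cells pre-incubated 24 h at 37 °C, 5% CO2, then exposed 72 h to six 3-fold dilutions of compound (top 166.7 μM), in triplicate. Calcein AM added to 1 μg/ml final; fluorescence read after 1 h. GI50 is the concentration giving 50% reduction of esterase activity, taken from dose-response curves.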
# [2] = tested on: Human lymphocytes; assay: Immunosuppressive activity, 3H-thymidine incorporation in concanavalin A activated lymphocytes; settings: 72 hours, [3H]-TdR incorporation, read-out: Human lymphocytes ED50
# How it was run: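 Ficoll-separated peripheral blood mononuclear cells from healthy donors, stimulated with concanavalin A and exposed to six 4-fold compound dilutions (top 266.7 μM) for 72 h at 37 °C. Proliferation read by 6 h [3H]-thymidine pulse and scintillation counting; ED50 taken from dose-response curves versus control wells.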
# [3] = tested on: caspase-3; assay: Activity of caspase-3 in CEM cells (Apo-ONE kit); settings: 10 μM, 12 and 24 hours
# Method: In the course of apoptosis, caspase cascade is activated. Caspase-3 is an effector caspase that plays a role in the induction of some changes typical for apoptosis (chromatin condensation, DNA fragmentation).
# Leukemia cell line CEM was cultured in cell culture medium (DMEM containing 5 g/l glucose, 2 mM glutamine, 100 U/ml peniciline, 100 μg/ml streptomycine, 10% fetal calf serum and sodium bicarbonate). 24 hours before treatment, cell suspensions were centrifuged, diluted to concentration of 500000 cells per ml with fresh medium and pipetted in 50 µL aliquotes into 96-well plate. After 12 and 24 hours of incubation with the test compound, the activity of caspase-3 was measured using commercial kit (Apo-ONE, Promega) that is based on quantification of hydrolysis of fluorogenic substrate Z-DEVD-R110 (excitation 480 nm/emission 520 nm). Reaction specifity was confirmed in a control experiment, when both test compound and caspase-3 inhibitor Ac-DEVD-CHO were added. All experiments were done in triplicate.
structure (smiles),measurement,setting,value
"O=P(O)(O)OC[C@H]1O[C@@H](n2cnc3c(NCc4ccccc4O)ncnc32)[C@H](O)[C@@H]1O [Compound 21, 6-(2-hydroxybenzylamino)purine riboside-5′-monophosphate]",GI50,[1],43.2 µM
same,EC50,[2],6.7 µM
same,activation of caspase-3,[3],activates caspase-3
